Test system: collapse on exposure to an aerosol of methacholine
Assay: Anticholinergic test: prolongation of collapse time in conscious guinea pigs exposed to an aerosol of methacholine
Format: in vivo
Conditions: guinea pig, 25 mg/kg intraperitoneally; 10 minutes methacholine aerosol; Control 1.9 to 2.0
Experimental: The compounds of the invention display anticholinergic properties when tested by the following procedure: Conscious guinea pigs, six at a time, are put into a sealed chamber and exposed for 10 minutes to an aerosol of methacholine. Untreated animals or those treated with vehicle will collapse in 1.9±0.1 minutes. Groups of animals are injected intraperitoneally with 25 mg/kg of test compound and exposed in the chamber under the same conditions. Compounds which prolong the collapse time past that of the control animals are considered active.

Row | SMILES | (Minutes Protection) [min]
1 | CNC(C)CN1CCc2c(c(=O)oc3cc(C)c(NC(C)=O)cc23)C1 (centres unmarked) [AcNH Me H Me H, N-[1,3,4,5-Tetrahydro-8-methyl-3-[2-(methylamino)propyl]-5-oxo-2H-[1]benzopyrano[3,4-c]pyridin-9-yl]acetamide] | 10.0
2 | CCN(CC)C(C)CN1CCc2c(c(=O)oc3cc(C)c(Cl)cc23)C1 (centres unmarked) [Cl Me H Et Et, 9-Chloro-3-[2-(diethylamino)propyl]-1,2,3,4-tetrahydro-8-methyl-5H-[1]benzopyrano[3,4-c]pyridin-5-one] | 3.4
3 | CCNC(C)CN1CCc2c(c(=O)oc3cc(C)c(Cl)cc23)C1 (centres unmarked) [Cl Me H Et H, 9-Chloro-3-[2-(ethylamino)propyl]-1,2,3,4-tetrahydro-8-methyl-5H-[1]benzopyrano[3,4-c]pyridin-5-one] | 3.1
4 | CCOc1cc2oc(=O)c3c(c2cc1OCC)CCN(CC(C)N(CC)CC)C3.Cl.Cl (centres unmarked) [EtO EtO H Et Et, 3-[2-(Diethylamino)propyl]-1,2,3,4-tetrahydro-8,9-diethoxy-5H-[1]benzopyrano[3,4-c]pyridin-5-one dihydrochloride] | 10.0
5 | CC(CN1CCc2c(c(=O)oc3c2ccc2ccccc23)C1)N(C)C (centres unmarked) [H CHCHCHCH Me Me, 2-[2-(Dimethylamino)propyl]-1,2,3,4-tetrahydro-12H-naphtho-[2',1':5,6]pyrano[3,4-c]pyridin-12-one dihydrochlorine] | 5.9
6 | CCCN(CC)C(C)CN1CCc2c(c(=O)oc3ccccc23)C1 (centres unmarked) [H H H Et Pr, 3-[2-(Ethylpropylamino)propyl]-1,2,3,4-tetrahydro-5H-[1]benzopyrano[3,4-c]pyridin-5-one] | 6.4
7 | CCNC(C)CN1CCc2c(c(=O)oc3cc(C)ccc23)C1 (centres unmarked) [H Me H Et H, 3-[2-(Ethylamine)propyl]-1,2,3,4-tetrahydro-8-methyl-5H-[1]benzopyrano[3,4-c]pyridin-5-one] | 10.0
8 | CCCN(CC)C(C)CN1CCc2c(c(=O)oc3cc(C)ccc23)C1 (centres unmarked) [H Me H Et n-Pr, 3-[2-(Ethylpropylamino)propyl]-1,2,3,4-tetrahydro-8-methyl-5H-[1]benzopyrano[3,4-c]pyridin-5-one] | 7.6
9 | CNC(C)CN1CCc2c(c(=O)oc3cc(C)ccc23)C1 (centres unmarked) [H Me H Me H, 1,2,3,4-Tetrahydro-8-methyl-3-[2-(methylamine)propyl]-5H-[1]-benzopyrano[3,4-c]pyridin-5-one] | 2.1
10 | CCCCN(C)C(C)CN1CCc2c(c(=O)oc3cc(C)ccc23)C1 (centres unmarked) [H Me H Me n-Bu, 3-[2-(Butylmethylamino)propyl]-1,2,3,4-tetrahydro-8-methyl-5H-[1]benzopyrano[3,4-c]pyridin-5-one] | 7.8
11 | CCCN(C)C(C)CN1CCc2c(c(=O)oc3cc(C)ccc23)C1 (centres unmarked) [H Me H Me n-Pr, 1,2,3,4-Tetrahydro-8-methyl-3-[2-(methylpropylamino)propyl]-5H-[1]benzopyrano[3,4-c]pyridin-5-one] | 5.4
12 | CCN(CC)C(C)CN1CCc2c(c(=O)oc3cc(OC)ccc23)C1 (centres unmarked) [H MeO H Et Et, 3-[2-(Diethylamino)propyl]-1,2,3,4-tetrahydro-8-methoxy-5H-[1]benzopyrano[3,4-c]pyridin-5-one] | 10.0
13 | CCNC(C)CN1CCc2c(c(=O)oc3cc(OC)ccc23)C1 (centres unmarked) [H MeO H Et H, 3-[2-(Ethylamino)propyl]-1,2,3,4-tetrahydro-8-methoxy-5H-[1]benzopyrano[3,4-c]pyridin-5-one] | 7.5
14 | CCCN(CC)C(C)CN1CCc2c(c(=O)oc3cc(OC)ccc23)C1 (centres unmarked) [H MeO H Et n-Pr, 3-[2-(Ethylpropylamino)propyl]-1,2,3,4-tetrahydro-8-methoxy-5H-[1]benzopyrano[3,4-c]pyridin-5-one] | 10.0

From US4382939A, “3-[2-(Mono-and dialkylamino)propyl]-1,2,3,4-tetrahydro-5H-[1]benzopyrano[3,4-C]pyridin- 5-ones useful for treating bronchospastic diseases” (Warner Lambert Company, priority 1982, dated 1983)
